Values quoted from earlier work, collected in patent US11723919B2, “Composition or combination comprising anionic dietary supplement and 25-hydroxy vitamin D” (Phibro Animal Health Corporation, priority 2020, dated 2023).

Tested on: dairy cows
Details: administration pre- or post-calving; Guo et al. 2018

## C=C1CC[C@H](O)C/C1=C/C=C1\CCC[C@]2(C)[C@@H]([C@H](C)CCCC(C)(C)O)CC[C@@H]12 [25-hydroxy vitamin D, 25-hydroxy vitamin D3]
  effect on milk yield: no effect
